The values below come from ChEMBL document CHEMBL1287644, “The novel benzopyran class of selective cyclooxygenase-2 inhibitors. Part III: the three microdose candidates” (Bioorg Med Chem Lett, 2010).

The species named for one data set is Homo sapiens. As to the kind of experiment: Selectivity ratio of IC50 for human COX1 to IC50 for human COX2.
Data set [1] addresses Prostaglandin G/H synthase 1 (Homo sapiens, UniProt P23219). Description: Inhibition of human COX-1.
Data set [2] has as its system Rattus norvegicus. As to the kind of experiment: Antiinflammatory activity in rat air pouch model assessed as inhibition of carrageenan-induced PGE2 production administered 1 hr before carrageenan challenge. The format is functional. Conditions: for ED50: Rattus norvegicus.
Data set [3] deals with Rattus norvegicus. Description: Antiinflammatory activity in rat air pouch model assessed as inhibition of carrageenan-induced PGE2 production administered 1 hr after carrageenan challenge.
For data set [4], the species on record is Rattus norvegicus. Description: Antiarthritic activity in rat assessed as reduction in adjuvant-induced arthritic pain. The format is functional.
A short description of data set [5]: Half life in rat. The format is ADME, organism-based. Conditions: in vivo.
A short description of data set [6]: Half life in dog. The format is ADME, organism-based, Canis lupus familiaris. Conditions: in vivo.
Data set [7] in a line: Half life in cynomolgus monkey. The format is ADME, organism-based, Macaca fascicularis. The note with it: in vivo.
The species named for data set [8] is Rattus norvegicus. As to the kind of experiment: Analgesic activity against carrageenan-induced thermal hyperalgesia in rat. The format is functional.
Data set [9] can be described thus: Half life in human at 10 ug, po. The format is ADME, organism-based. The note with it: in vivo.
In data set [10] the test system is Rattus norvegicus. As to the kind of experiment: Antiinflammatory activity in rat assessed as reduction of carrageenan-induced paw edema. Format: functional.

Some results are limits rather than exact numbers.

Usually IC50 stands for the concentration needed to halve the response being measured. As usually defined, the ED50 is the midpoint of the dose-response relation. The term half-life denotes how long it takes for the measured level to halve.

Prostaglandin G/H synthase 1, sequence (P23219 whole entry): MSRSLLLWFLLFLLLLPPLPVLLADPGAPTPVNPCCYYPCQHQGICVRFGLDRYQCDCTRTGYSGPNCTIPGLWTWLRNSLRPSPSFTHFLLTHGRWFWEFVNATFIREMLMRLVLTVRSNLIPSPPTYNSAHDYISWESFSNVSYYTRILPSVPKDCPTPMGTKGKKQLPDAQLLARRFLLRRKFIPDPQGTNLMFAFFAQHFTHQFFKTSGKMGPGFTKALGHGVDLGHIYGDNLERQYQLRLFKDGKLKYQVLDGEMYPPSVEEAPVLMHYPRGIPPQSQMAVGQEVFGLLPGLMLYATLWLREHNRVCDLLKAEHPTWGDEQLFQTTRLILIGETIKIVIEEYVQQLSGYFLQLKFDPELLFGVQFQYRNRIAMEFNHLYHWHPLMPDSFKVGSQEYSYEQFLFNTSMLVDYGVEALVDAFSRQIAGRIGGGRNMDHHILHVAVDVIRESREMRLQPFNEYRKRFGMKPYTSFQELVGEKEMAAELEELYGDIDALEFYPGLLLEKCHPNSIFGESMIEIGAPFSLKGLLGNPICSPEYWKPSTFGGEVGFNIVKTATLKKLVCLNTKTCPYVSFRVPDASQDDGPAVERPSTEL

In the case of `CCc1cc(C)c2c(c1)C=C(C(=O)O)C(C(F)(F)F)O2` (stereo not given), in the data set filed under Homo sapiens, the Ratio IC50 stood at 0.5. In addition, inhibition in [1] was half-maximal at 0.14 µM (IC50).
Regarding `Cc1cc(OC(F)(F)F)cc2c1O[C@H](C(F)(F)F)C(C(=O)O)=C2`, the “inhibition (INH)” value in the data set on Rattus norvegicus [2] was over 68%.
In the case of `Cc1cc(Cl)c2c(c1)C=C(C(=O)O)C(C(F)(F)F)O2` (stereo not given), the Ratio IC50 in the data set filed under Homo sapiens came to 5.7. The molecule further showed a half-maximal inhibitory concentration (IC50) in [1] of 1.08 µM.
For `O=Cc1ccc2c(c1)C=C(C(=O)O)C(C(F)(F)F)O2` (stereo not given) the same measures were 685 and 500 µM.
`COc1cc(C)cc2c1OC(C(F)(F)F)C(C(=O)O)=C2` (stereo not given): the Ratio IC50 in the data set filed under Homo sapiens was determined as 2.9.
Regarding `COc1cc(Cl)c2c(c1)C=C(C(=O)O)C(C(F)(F)F)O2` (stereo not given), in the data set filed under Homo sapiens, the Ratio IC50 amounted to 107. For the same molecule, inhibition in [1] was half-maximal at 25.6 µM (IC50).
With `CCc1ccc2c(c1)C=C(C(=O)O)C(C(F)(F)F)O2` (stereo not given), in the data set with Rattus norvegicus [3], the “inhibition (INH)” value amounted to 90%. For the same molecule, in the data set filed under Homo sapiens, the Ratio IC50 came to 0.36. In data set [1], the IC50 came out at 0.12 µM.
Consider `Cc1cc(Cl)cc2c1OC(C(F)(F)F)C(C(=O)O)=C2` (stereo not given), for which half-maximal inhibition in data set [1] (IC50) required 0.47 µM.
As for `C#Cc1ccc2c(c1)C=C(C(=O)O)C(C(F)(F)F)O2` (stereo not given), in the data set filed under Homo sapiens, the Ratio IC50 came to 1290. The “inhibition (INH)” value with Rattus norvegicus [2] is 60%. In [1], this molecule had a half-maximal inhibitory concentration (IC50) of 94.2 µM.
On to `Cc1c(Cl)cc2c(c1C)O[C@H](C(F)(F)F)C(C(=O)O)=C2`, for which the “inhibition (INH)” value in the data set on Rattus norvegicus [3] is 60%.
As for `Cc1cc2c(c(C)c1Cl)C=C(C(=O)O)C(C(F)(F)F)O2` (stereo not given), the Ratio IC50 in the data set filed under Homo sapiens was found to be 229. Further, 29.8 µM corresponded to half-maximal inhibition in data set [1] (IC50).
In [1], `O=C(O)C1=Cc2cc(C(F)(F)F)ccc2OC1C(F)(F)F` (stereo not given) displayed an IC50 of 4.39 µM.
On to `Cc1cc2c(c(C)c1Cl)C=C(C(=O)O)[C@@H](C(F)(F)F)O2`, for which the median effective dose (ED50) turned out to be 3.2 mg/kg in the data set listed under Rattus norvegicus [4], 7.6 mg/kg in the data set filed under Rattus norvegicus [8], 0.41 mg/kg with Rattus norvegicus [2] and 8 mg/kg with Rattus norvegicus [10]. Further, the half-life in data set [5] was 4.7 h; in [6] it was 23 h; in data set [7], 5.4 h; in data set [9] it was 11 h. Also, the concentration for half-maximal inhibition (IC50) in [1] was 2.28 µM.
On to `C#Cc1cc(Cl)c2c(c1)C=C(C(=O)O)C(C(F)(F)F)O2` (stereo not given), for which, in the data set listed under Homo sapiens, the Ratio IC50 was 5.4. For the same molecule, the IC50 in [1] turned out to be 0.14 µM.
Turning to `Cc1cc(C)c2c(c1)C=C(C(=O)O)C(C(F)(F)F)O2` (stereo not given), the Ratio IC50 in the data set filed under Homo sapiens was determined as 704. Besides, the IC50 in [1] was determined as 169 µM.
As to `Cc1ccc2c(c1)C=C(C(=O)O)C(C(F)(F)F)O2` (stereo not given), the Ratio IC50 in the data set filed under Homo sapiens is 896. The “inhibition (INH)” value in the data set with Rattus norvegicus [2] was found to be 13%. The same molecule yielded an IC50 in data set [1] of 224 µM.
Consider `N#Cc1ccc2c(c1)C=C(C(=O)O)C(C(F)(F)F)O2` (stereo not given), for which, in the data set listed under Homo sapiens, the Ratio IC50 was 1040. The same molecule registered a concentration for half-maximal inhibition (IC50) in data set [1] of 115 µM.
For `Cc1cc(Cl)c(C)c2c1OC(C(F)(F)F)C(C(=O)O)=C2` (stereo not given), in that order: 12 and 2.58 µM.
The molecule `CCc1cc(OC(F)(F)F)cc2c1OC(C(F)(F)F)C(C(=O)O)=C2` (stereo not given) gave an IC50 in data set [1] of 0.5 µM.
In turn, `CCCc1cc(OC(F)(F)F)cc2c1O[C@@H](C(F)(F)F)C(C(=O)O)=C2` gave a half-maximal inhibitory concentration (IC50) in data set [1] of 100 µM.
Consider `O=C(O)C1=Cc2cc(OC(F)(F)F)ccc2OC1C(F)(F)F` (stereo not given) [OCAROCOXIB], for which the Ratio IC50 in the data set filed under Homo sapiens came to 773. This molecule also gave an IC50 in data set [1] of 17 µM.
Take `CCCc1cc(OC(F)(F)F)cc2c1OC(C(F)(F)F)C(C(=O)O)=C2` (stereo not given): the Ratio IC50 in the data set listed under Homo sapiens stood at 163. Besides, it took 7 µM to reach half-maximal inhibition in [1] (IC50).
Consider `O=C(O)C1=Cc2cc(Cl)ccc2OC1C(F)(F)F` (stereo not given), for which, in the data set filed under Homo sapiens, the Ratio IC50 was 91.
Take `CCCc1cc(OC(F)(F)F)cc2c1O[C@H](C(F)(F)F)C(C(=O)O)=C2`: in the data set with Rattus norvegicus [2], the “inhibition (INH)” value is over 68%. Moreover, in [1], inhibition was half-maximal at 71.7 µM (IC50).
`CCc1cc(OC(F)(F)F)cc2c1O[C@H](C(F)(F)F)C(C(=O)O)=C2`: the ED50 worked out at 0.8 mg/kg in the data set listed under Rattus norvegicus [4], 5.6 mg/kg in the data set filed under Rattus norvegicus [8], 1.87 mg/kg in the data set on Rattus norvegicus [2] and 3.8 mg/kg in the data set on Rattus norvegicus [10]. In addition, the half-life was 2 h in [5], 7.7 h in data set [6], 12 h in data set [7] and 13 h in data set [9]. For the same molecule, the “inhibition (INH)” value in the data set with Rattus norvegicus [2] is over 72%. In [1], this molecule displayed a concentration for half-maximal inhibition (IC50) of 19.9 µM.
On to `Cc1cc2c(c(C)c1Cl)C=C(C(=O)O)[C@H](C(F)(F)F)O2`, for which the IC50 in data set [1] was 30.8 µM.
For the molecule `Cc1cc(C)c2c(c1)C=C(C(=O)O)[C@@H](C(F)(F)F)O2`, the ED50 in the data set listed under Rattus norvegicus [4] stood at 10 mg/kg; in the data set filed under Rattus norvegicus [8], 20.7 mg/kg; in the data set on Rattus norvegicus [2], 2 mg/kg; in the data set on Rattus norvegicus [10] it was 8.6 mg/kg. Moreover, the half-life was 8.7 h in data set [5], 19 h in data set [6], 28 h in [7] and 57 h in [9]. In the data set with Rattus norvegicus [2], the “inhibition (INH)” value worked out at 80%. In [1], this molecule gave an IC50 of 100 µM.
Consider `COc1cc(OC(F)(F)F)cc2c1OC(C(F)(F)F)C(C(=O)O)=C2` (stereo not given), for which, in the data set filed under Homo sapiens, the Ratio IC50 is 0.5. Further, inhibition in [1] was half-maximal at 0.32 µM (IC50).
Molecule `CCc1cc(OC(F)(F)F)cc2c1O[C@@H](C(F)(F)F)C(C(=O)O)=C2` had an IC50 in data set [1] of 100 µM.
As for `COc1ccc2c(c1)C=C(C(=O)O)C(C(F)(F)F)O2` (stereo not given), the Ratio IC50 in the data set listed under Homo sapiens was found to be 1.
